The target in the experiment is T1, BDKRB2 reference form (Homo sapiens, UniProt P30411).
T1 construct: expressed in transfected cells; host or cells: CHO-K1
T1 sequence (P30411 1-391): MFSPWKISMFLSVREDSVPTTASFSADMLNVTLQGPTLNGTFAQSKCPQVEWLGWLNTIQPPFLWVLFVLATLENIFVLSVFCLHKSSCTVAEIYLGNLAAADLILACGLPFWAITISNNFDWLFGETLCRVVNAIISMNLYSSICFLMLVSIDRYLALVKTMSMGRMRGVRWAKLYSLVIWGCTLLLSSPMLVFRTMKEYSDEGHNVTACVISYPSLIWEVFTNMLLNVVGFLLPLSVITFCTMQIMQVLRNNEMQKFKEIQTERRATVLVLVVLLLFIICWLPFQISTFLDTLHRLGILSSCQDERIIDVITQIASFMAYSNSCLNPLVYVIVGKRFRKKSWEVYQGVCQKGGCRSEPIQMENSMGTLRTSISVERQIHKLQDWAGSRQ
In words: NFAT-Firefly luciferase reporter assay (Dual-Glo) of BDKRB2 dependent signaling in transfected CHO-K1 cells. Conditions: 8 hour time-point. Format: cell-based.

Description: FIG. 10: Effect of bradyzide titration on the activity of BDKRB2 reference form. CHO-K1 cells were transfected with pNFAT—Firefly Luciferase reporter, BDKBR2-pcDNA3.1 and pGL4.73 [hRenilla Luciferase/SV40]. 18 hrs after transfection, cells were treated with bradyzide at indicated concentration in 10% FBS medium for 8, 24 and 48 hrs. The Firefly luciferase reporter activity and the renilla luciferase activity were measured sequentially. BDKRB2 activity was estimated by calculating the Ratios of Firefly and Renilla Luciferase Units (RLU).
The Promega Dual-Glo™ Assay system was used to indirectly monitor BDKRB2 dependent signaling.

As to `CN(C)CCN(C)CCNC(=O)[C@@H]1CCCN1S(=O)(=O)c1ccc(NNC(=S)NC(c2ccccc2)c2ccccc2)c([N+](=O)[O-])c1` [bradyzide], the “inhibition of serum induced activity in luciferase reporter assay” value is given as “inhibited”. In addition, the “reduction of serum-induced basal BDKRB2 activity” value (bradyzide titration, 10% FBS medium) is “about 40%”.

These data come from US20090246269A1, “IDENTIFICATION AND USE OF GPRC VARIANTS IN THE TREATMENT AND DIAGNOSIS OF PARKINSON'S DISEASE” (priority 2006, published 2009).
